This is an account of results in US10119079B2, “Composition for removal of sulfur-containing compounds” (KURARAY CO., LTD., priority 2014, dated 2018).

Data set [1] in a line: Removal of H2S from crude oil in autoclave (Examples 2-3, Comparative Examples 1-2). The settings on record: liquid added at 1% by mass, 80° C., 5 hours, 800 rpm; for H2S concentration of the gas phase part after the reaction: initial 2,580-2,800 ppm. As to the method: In a 100-mL autoclave equipped with a thermometer and a stirrer, 30 mL of a crude oil collected in Japan was charged and stirred until an H2S concentration of a gas phase part became constant. Thereafter, the concentration was measured with RX-517 (manufactured by Riken Kiki Co., Ltd.) and found to be 2,800 ppm. Subsequently, a composition liquid prepared by mixing PEG-200 and NL/MOL in a mass ratio of 1/1 was added in a concentration of 1% by mass relative to the crude oil. At this time, the addition amount of NL/MOL was 0.6 mmol, and the presence amount of H2S within the apparatus was 0.05 mmol. Thereafter, the inside of the apparatus was subjected to temperature rise to 80° C. while stirring at 800 rpm, and the contents were allowed to react with each other for 5 hours. After the reaction, the reaction mixture was cooled to room temperature, an H2S concentration of the gas phase part was measured and found to be 2 ppm, and a removal efficiency was 99.9%.
(§1) In a 100-mL autoclave equipped with a thermometer and a stirrer, 30 mL of a crude oil collected in Japan was charged and stirred until an H2S concentration of a gas phase part became constant. Thereafter, the concentration was measured with RX-517 (manufactured by Riken Kiki. Co., Ltd.) and found to be 2,580 ppm. Subsequently, a 50% by mass MGL aqueous solution was added in a concentration of 1% by mass relative to the crude oil. At this time, the addition amount of MGL was 0.9 mmol, and the presence amount of H2S within the apparatus was 0.05 mmol. Thereafter, the inside of the apparatus was subjected to temperature rise to 80° C. while stirring at 800 rpm, and the contents were allowed to react with each other for 5 hours. After the reaction, the reaction mixture was cooled to room temperature, an H2S concentration of the gas phase part was measured and found to be 70 ppm, and a removal efficiency was 97.3%.
as §1, with “Kiki” for “Kiki.”, “2,714” for “2,580”, “glutaraldehyde” for “MGL”, “1.0” for “0.9”, “100” for “70”, “96.3%.” for “97.3%.”
In a 100-mL autoclave equipped with a thermometer and a stirrer, 30 mL of a crude oil collected in Japan was charged and stirred until an H2S concentration of a gas phase part became constant. Thereafter, the concentration was measured with RX-517 (manufactured by Riken Kiki Co., Ltd.) and found to be 2,600 ppm. Subsequently, a 40% by mass glyoxal aqueous solution (manufactured by Wako Pure Chemical Industries, Ltd.) was added in a concentration of 1% by mass relative to the crude oil. At this time, the addition amount of glyoxal was 1.8 mmol, and the presence amount of H2S within the apparatus was 0.04 mmol. Thereafter, the inside of the apparatus was subjected to temperature rise to 80° C. while stirring at 800 rpm, and the contents were allowed to react with each other for 5 hours. After the reaction, the reaction mixture was cooled to room temperature, an H2S concentration of the gas phase part was measured and found to be 498 ppm, and a removal efficiency was 80.8%.

In data set [2] the test system is 6-week-old male CRj:CD(SD) rat. The data set can be described thus: Oral toxicity, 14-day repeated oral administration. Type of data set: in vivo. An excerpt:
A test substance which had been emulsified and dispersed in a 2%-gum arabic aqueous solution (containing 0.5%-Tween 80) was compulsorily administered in a 6-week-old male CRj:CD(SD) rat once a day for 14 days by using an oral sonde. A body weight variation and a general state during the administration period were observed. The rat was fasted for one day from the final administration date (drinking was freely taken), and on the day after final administration, taking a blood sample (for various blood tests) and mass measurement of major organs were performed. In addition, with respect to the liver, kidney, spleen, and testis, a histopathological examination (optical microscopic observation of HE-stained thin sliced tissue piece) was also carried out. A dose was set to 1,000, 250, 60, 15, and 0 mg/kg/day (administration liquid volume=1 mL/100 g-body weight/day), respectively, and five animals were used for each dosage.
(1) NL (GC purity: 99.7%)
(2) Glutaraldehyde (water content: 101 ppm, GC purity: 99.8%)
As a result of the test, with respect to NL, no fatal case was admitted even at the highest dose of 1,000 mg/kg/day.

The subject of data set [3] is Pseudokirchneriella subcapitata. Description: Alga growth inhibition test (OECD Test Guidelines No. 201). Type of data set: cell-based. The settings on record: Selenastrum capricornutum; algae growth inhibition, 23° C., 72 hours; read-out: ErC50 (72 hr).
Protocol: An alga growth inhibition test of a test substance was carried out with reference to OECD Test Guidelines No. 201. That is, each of the following test substances was diluted with a test medium to a prescribed dosage. A liquid suspension of algae which had been grown to an exponential growth phase by preculture was added in an initial concentration of 1×10^4 cells/mL. The liquid suspension was subjected to shaking culture at 23° C. using a light irradiation-type bio shaker (BR-180LF, manufactured by Taitec Corporation), the number of algae cells at an elapsed time of 24, 48, and 72 hours, respectively after the start of the test was counted with a flow cytometer (Cell Lab Quant SC, manufactured by Beckman Coulter, Inc.), and a growth ratio at each test dosage was calculated while defining a growth ratio of the normal control as 100%. In addition, ErC50 was calculated according to an equation of an approximate curve of a graph plotting a growth inhibition ratio.
Algae: Pseudokirchneriella subcapitata
Dosage of Test Substance:
Each of the test substance (1) and the test substance (2): 100, 32, 10, 3.2, 1, 0.32 mg/L (common ratio: √10), and 0 mg/L (normal control)
Standard substance: 3.2, 1, 0.32 mg/L, and 0 mg/L (normal control)
Data set [4] relates to sludge of the sewage treatment plant. The data set can be described thus: Bactericidal test on sludge (MTT method). As to conditions: sludge bacterial culture, about 25° C., 24 and 48 hours, MTT visual. Type of data set: cell-based. As to the method:
To a synthetic sewer water prepared by dissolving 5 g of each of glucose, peptone, and monopotassium dihydrogen phosphate in one liter of water and adjusting the pH at 7.0±1.0 with sodium hydroxide, a sludge of the sewage treatment plant located in the Mizushima district, Kurashiki-shi, Okayama Prefecture, Japan was added in an amount of 30 ppm as converted to dry mass, thereby preparing a bacterial culture. Meanwhile, a test substance was diluted with distilled water on a scale of […] in a final concentration of 1,000 to 0.004 ppm (common ratio=4) on a 24-well microplate, thereby preparing test solutions. Two wells were used for every concentration. As a comparison target, (distilled water+bacterial culture) was defined as “bacterial culture blank”, and distilled water alone was defined as “blank”.
The above-prepared bacterial culture and test solution were mixed in a volume ratio of 1/1, and the mixture was allowed to stand within a thermostatic tank at ambient temperature (about 25° C.) for 24 hours and 48 hours, respectively. A level of sludge influence at each concentration of the test substance was visually observed by means of the MTT method. An MTT reagent is converted by mitochondria as a microorganism in the sludge to form formazan, thereby developing a blue color.
(1) Mixture of NL and MOL (GC purity: 98.7%, NL/MOL=59/41) […]

Where [5] appears, read: rat, oral, once a day for 14 days.

Structures are written as SMILES. Converted amounts (≈) assume the structure as drawn.

For `CC(CC=O)CC=O` [MGL, 3-methylglutaraldehyde], in data set [1], the removal efficiency came to 97.3% and the “H2S concentration of the gas phase part after the reaction” value (“H2S concentration of the gas phase part” for short) was determined as 70 ppm.
With `O=CCCCCCCCC=O` [NL, 1,9-nonanedial], in data set [2] (rat oral toxicity test), the “classification as deleterious substance” value was “not corresponding to a “deleterious substance””. Besides, the “NOEL (maximum no-effect level)” value in data set [2] (setting [5]) was 250 mg/kg. Besides, the fatal cases entry in data set [2] (rat, oral, once a day for 14 days, highest dose of 1,000 mg/kg/day) is recorded as “no fatal case”.
In the case of `O=CCCCC=O` [Glutaraldehyde, glutaraldehyde], the “NOEL (maximum no-effect level)” value in data set [2] (setting [5]) is given as 5 mg/kg. The EC50 in data set [3] was 9 µg/mL (≈ 89.9 µM). Moreover, in data set [1], the removal efficiency is reported as 96.3% and the “H2S concentration of the gas phase part” value is recorded as 100 ppm. The same molecule had a Sterilizing concentration in data set [4] of 63 ppm.
For `O=CC=O` [glyoxal], in data set [1], the removal efficiency was 80.8% and the “H2S concentration of the gas phase part” value is reported as 498 ppm.
